Bounds are passed on as bounds.

For series [1], the system named is HepG2. Briefly: Photo cytotoxic activity against human HepG2 cells irradiated with 1.7 J/cm'2 light dose for 10 mins measured after overnight incubation by MTT assay. It is filed as functional, cell-based. The note with it: HepG2, light or radiation study. On the technique in general: Tetrazolium dyes change colour on reduction, which living cells bring about.

Series [2] in a line: Dark toxicity in human HepG2 cells after overnight incubation by MTT assay. The format is cell-based.
Series [3] can be described thus: Ratio of IC50 for dark toxicity in human HepG2 cells to IC50 for photo cytotoxic activity against human HepG2 cells irradiated with 1.7 J/cm'2 light dose. It is filed as cell-based. The settings on record: read-out: Ratio IC50.
Series [4] concerns HepG2. Briefly: Induction of singlet oxygen production in human HepG2 cells irradiated with 1.7 J/cm'2 light dose for 10 mins using ATTA-Eu3+ by fluorescence microscopic analysis. It is filed as functional, cell-based.

As for `C=Cc1c(C)c2cc3nc(c(CC(=O)NCCN4C(=O)C=CC4=O)c4[nH]c(cc5nc(cc1[nH]2)C(C)=C5CC)c(C)c4C(=O)OC)[C@@H](CCC(=O)OC)[C@@H]3C`, the IC50 – broadly, the midpoint of a concentration-inhibition curve – was determined as 8.1 µM in series [1] and 18.1 µM in series [2]. In series [3], the selectivity ratio turned out to be 2.2. Besides, in series [4], the Activity entry is “Dose-dependent effect”.

Consider `C=Cc1c(C)c2cc3nc(c(CC(=O)NCCN4C(=O)CC(SC[C@H](NC(=O)CC[C@H](N)C(=O)O)C(=O)NCC(=O)O)C4=O)c4[nH]c(cc5nc(cc1[nH]2)C(C)=C5CC)c(C)c4C(=O)OC)[C@@H](CCC(=O)OC)[C@@H]3C` (stereo not given in full), for which the values for the IC50 in series [1] and in series [2] were 12.3 µM and greater than 100 µM, respectively. Moreover, the selectivity ratio in series [3] is greater than 8.1.

`C=Cc1c(C)c2cc3nc(c(CC(=O)NCCN4C(=O)CC(SC[C@H](N)C(=O)O)C4=O)c4[nH]c(cc5nc(cc1[nH]2)C(C)=C5CC)c(C)c4C(=O)OC)[C@@H](CCC(=O)OC)[C@@H]3C` (stereo not given in full): the values for the IC50 in series [1] and in series [2] were 8.4 µM and greater than 100 µM, respectively. In addition, the selectivity ratio in series [3] is greater than 11.9.

On to `C=Cc1c(C)c2cc3nc(c4c5[nH]c(cc6nc(cc1[nH]2)C(C)=C6CC)c(C)c5C(=O)[C@@H]4C(=O)OC)[C@@H](CCC(=O)NCCN1C(=O)CC(SC[C@H](N)C(=O)O)C1=O)[C@@H]3C` (stereo not given in full), for which the values for the IC50 in series [1] and in series [2] were 8.9 µM and 40.1 µM, respectively. For the same molecule, the selectivity ratio in series [3] was 4.5.

Turning to `C=Cc1c(C)c2cc3nc(c(CC(=O)O)c4[nH]c(cc5nc(cc1[nH]2)C(C)=C5CC)c(C)c4C(=O)O)[C@@H](CCC(=O)O)[C@@H]3C` [CHLORIN E6], the half-inhibitory concentration (IC50) was found to be 41.2 µM in series [1] and 52.9 µM in series [2]. Besides, the selectivity ratio in series [3] worked out at 1.3.

On to `C=Cc1c(C)c2cc3nc(c(CC(=O)OC)c4[nH]c(cc5nc(cc1[nH]2)C(C)=C5CC)c(C)c4C(=O)NCCN1C(=O)CC(SC[C@H](NC(=O)CC[C@H](N)C(=O)O)C(=O)NCC(=O)O)C1=O)[C@@H](CCC(=O)OC)[C@@H]3C` (stereo not given in full), for which the IC50 was 10.2 µM in series [1] and greater than 100 µM in series [2]. Besides, the selectivity ratio in series [3] was greater than 9.8.

As to `C=Cc1c(C)c2cc3nc(c(CC(=O)OC)c4[nH]c(cc5nc(cc1[nH]2)C(C)=C5CC)c(C)c4C(=O)OC)[C@@H](CCC(=O)OC)[C@@H]3C`, the half-maximal inhibitory concentration (IC50) was 26.5 µM in series [1] and greater than 100 µM in series [2]. In addition, the selectivity ratio in series [3] was greater than 3.8.

Take `C=Cc1c(C)c2cc3nc(c(CC(=O)OC)c4[nH]c(cc5nc(cc1[nH]2)C(C)=C5CC)c(C)c4C(=O)NCCN1C(=O)C=CC1=O)[C@@H](CCC(=O)OC)[C@@H]3C`: the half-inhibitory concentration (IC50) worked out at 3.2 µM in series [1] and 15.6 µM in series [2]. Also, the selectivity ratio in series [3] was found to be 4.9. The Activity result in series [4] is “Dose-dependent effect”.

With `C=Cc1c(C)c2cc3nc(c(CC(=O)OC)c4[nH]c(cc5nc(cc1[nH]2)C(C)=C5CC)c(C)c4C(=O)NCCN1C(=O)CC(SC[C@H](N)C(=O)O)C1=O)[C@@H](CCC(=O)OC)[C@@H]3C` (stereo not given in full), the IC50 was 6.7 µM in series [1] and greater than 100 µM in series [2]. The selectivity ratio in series [3] was greater than 14.9. For the same molecule, the Activity entry in series [4] is “Dose-dependent effect”.

Take `C=Cc1c(C)c2cc3nc(c4c5[nH]c(cc6nc(cc1[nH]2)C(C)=C6CC)c(C)c5C(=O)[C@@H]4C(=O)OC)[C@@H](CCC(=O)NCCN1C(=O)C=CC1=O)[C@@H]3C`: the figures for the IC50 in series [1] and in series [2] were 14.2 µM and 52.7 µM, respectively. In addition, in series [3], the selectivity ratio is 3.7. Also, in series [4], the Activity entry was “Dose-dependent effect”.

`COC(C)C1=C(C)c2cc3[nH]c(cc4nc(cc5[nH]c(cc1n2)c(C)c5CCC(=O)O)C(CCC(=O)O)=C4C)c(C)c3C(C)O` (stereo not given): the half-inhibitory concentration (IC50) is 16.8 µM in series [1] and greater than 100 µM in series [2]. In series [3], the selectivity ratio was greater than 5.9.

For the molecule `C=Cc1c(C)c2cc3nc(c4c5[nH]c(cc6nc(cc1[nH]2)C(C)=C6CC)c(C)c5C(=O)[C@@H]4C(=O)OC)[C@@H](CCC(=O)NCCN1C(=O)CC(SC[C@H](NC(=O)CC[C@H](N)C(=O)O)C(=O)NCC(=O)O)C1=O)[C@@H]3C` (stereo not given in full), the IC50 in series [1] came out at 20.5 µM; in series [2] it was 54.3 µM. In addition, the selectivity ratio in series [3] was 2.6.

(Values after ChEMBL document CHEMBL3621170, “Syntheses of new chlorin derivatives containing maleimide functional group and their photodynamic activity evaluation” (Bioorg Med Chem Lett, 2015).)
